The text below walks through data of patent US10759766B2, “Certain chemical entities, compositions, and methods” (NeuPharma, Inc., priority 2011, dated 2020).

A word on the pIC50: it is the negative decadic logarithm of the IC50, by convention in mol/L. Broadly, the inhibition is the relative decrease from the control value, in per cent.

pIC50: −log10 of the molar value. Where only a bound is given, the exact number is not on record here.

One assay relates to A375 cells. Nature of the assay: Inhibition of cancer cell growth, MTT assay, A375. It is filed as cell-based. The following applies: Homo sapiens, A-375, 72 h exposure. In short, it runs like this: (§1)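 IC50 derived from percent growth inhibition versus concentration, tested in triplicate. Growth inhibition came from MTT read at 570 nm after 72 h drug exposure, relative to viable cells at dosing. Cells (about 4000/well, RPMI 1640 + 10% FBS) adhered 24 h before treatment; final DMSO 1%.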
Background: Tetrazolium assays rely on reduction of a dye to a coloured formazan, in cell work by metabolically active cells.

For another assay, the system named is A549 cells. Description: Inhibition of cancer cell growth, MTT assay, A549. It is filed as cell-based. As to conditions: Homo sapiens, A549, 72 h exposure. The procedure, abridged: as §1
The next assay concerns the target KDR (VEGFR2) (Homo sapiens (Human), UniProt P35968). Nature of the assay: Z′-LYTE kinase inhibition assay (Invitrogen), KDR. It is filed as biochemical. The following applies: Z′-LYTE method; for inhibition at 1 µM: 1 μM compound, read-out: % inhibition at 1 μM against KDR; for pIC50: read-out: IC50 against KDR. The procedure, abridged:
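Z′-LYTE FRET assay: 10 μL reactions with 0.5–11.7 ng KDR and 2 μM Tyr 01 peptide in 50 mM HEPES pH 7.5, 10 mM MgCl2, 1 mM EGTA, 0.01% BRIJ-35, 1 h at room temperature. Development Reagent B (1:256) added for 60 min, fluorescence read; IC50 from concentration–inhibition curves.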

The target of another assay is BRAF V600E (Homo sapiens (Human), UniProt P15056, V600E). Description: Z′-LYTE kinase inhibition assay (Invitrogen), BRAF V600E. The class given is biochemical. The following applies: Z′-LYTE method; for inhibition at 1 µM: 1 μM compound, read-out: % inhibition at 1 μM against BRAF V600E. The procedure, abridged: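 FRET-based Z′-LYTE peptide phosphorylation format in 50 mM HEPES pH 7.5, 0.01% BRIJ-35, 10 mM MgCl2, 1 mM EGTA with ATP. Kinase reaction 60 min at room temperature, then protease development step 60 min at room temperature before fluorescence read. IC50 from compound concentration versus percent inhibition.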
BRAF V600E, sequence (P15056 whole entry V600E): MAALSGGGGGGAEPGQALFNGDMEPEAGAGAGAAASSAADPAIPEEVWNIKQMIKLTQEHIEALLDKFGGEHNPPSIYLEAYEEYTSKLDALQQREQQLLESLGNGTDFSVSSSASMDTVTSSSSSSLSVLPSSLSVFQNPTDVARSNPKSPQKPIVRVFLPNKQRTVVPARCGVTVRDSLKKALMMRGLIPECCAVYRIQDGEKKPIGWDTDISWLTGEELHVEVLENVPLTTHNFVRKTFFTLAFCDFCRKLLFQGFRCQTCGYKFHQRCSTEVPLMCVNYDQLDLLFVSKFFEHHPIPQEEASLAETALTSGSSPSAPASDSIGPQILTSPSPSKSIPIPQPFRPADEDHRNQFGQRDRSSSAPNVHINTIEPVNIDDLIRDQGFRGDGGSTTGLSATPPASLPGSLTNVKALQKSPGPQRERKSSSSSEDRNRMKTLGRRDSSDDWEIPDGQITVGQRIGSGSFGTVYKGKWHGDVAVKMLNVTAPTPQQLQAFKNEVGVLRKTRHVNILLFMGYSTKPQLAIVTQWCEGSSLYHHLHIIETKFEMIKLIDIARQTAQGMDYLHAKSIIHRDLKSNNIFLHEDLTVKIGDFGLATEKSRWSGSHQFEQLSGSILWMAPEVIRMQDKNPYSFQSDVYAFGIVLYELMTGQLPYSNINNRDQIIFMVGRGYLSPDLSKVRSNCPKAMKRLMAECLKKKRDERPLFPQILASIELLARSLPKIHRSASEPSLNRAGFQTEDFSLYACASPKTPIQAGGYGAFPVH

KDR (VEGFR2), sequence (P35968 20-1356): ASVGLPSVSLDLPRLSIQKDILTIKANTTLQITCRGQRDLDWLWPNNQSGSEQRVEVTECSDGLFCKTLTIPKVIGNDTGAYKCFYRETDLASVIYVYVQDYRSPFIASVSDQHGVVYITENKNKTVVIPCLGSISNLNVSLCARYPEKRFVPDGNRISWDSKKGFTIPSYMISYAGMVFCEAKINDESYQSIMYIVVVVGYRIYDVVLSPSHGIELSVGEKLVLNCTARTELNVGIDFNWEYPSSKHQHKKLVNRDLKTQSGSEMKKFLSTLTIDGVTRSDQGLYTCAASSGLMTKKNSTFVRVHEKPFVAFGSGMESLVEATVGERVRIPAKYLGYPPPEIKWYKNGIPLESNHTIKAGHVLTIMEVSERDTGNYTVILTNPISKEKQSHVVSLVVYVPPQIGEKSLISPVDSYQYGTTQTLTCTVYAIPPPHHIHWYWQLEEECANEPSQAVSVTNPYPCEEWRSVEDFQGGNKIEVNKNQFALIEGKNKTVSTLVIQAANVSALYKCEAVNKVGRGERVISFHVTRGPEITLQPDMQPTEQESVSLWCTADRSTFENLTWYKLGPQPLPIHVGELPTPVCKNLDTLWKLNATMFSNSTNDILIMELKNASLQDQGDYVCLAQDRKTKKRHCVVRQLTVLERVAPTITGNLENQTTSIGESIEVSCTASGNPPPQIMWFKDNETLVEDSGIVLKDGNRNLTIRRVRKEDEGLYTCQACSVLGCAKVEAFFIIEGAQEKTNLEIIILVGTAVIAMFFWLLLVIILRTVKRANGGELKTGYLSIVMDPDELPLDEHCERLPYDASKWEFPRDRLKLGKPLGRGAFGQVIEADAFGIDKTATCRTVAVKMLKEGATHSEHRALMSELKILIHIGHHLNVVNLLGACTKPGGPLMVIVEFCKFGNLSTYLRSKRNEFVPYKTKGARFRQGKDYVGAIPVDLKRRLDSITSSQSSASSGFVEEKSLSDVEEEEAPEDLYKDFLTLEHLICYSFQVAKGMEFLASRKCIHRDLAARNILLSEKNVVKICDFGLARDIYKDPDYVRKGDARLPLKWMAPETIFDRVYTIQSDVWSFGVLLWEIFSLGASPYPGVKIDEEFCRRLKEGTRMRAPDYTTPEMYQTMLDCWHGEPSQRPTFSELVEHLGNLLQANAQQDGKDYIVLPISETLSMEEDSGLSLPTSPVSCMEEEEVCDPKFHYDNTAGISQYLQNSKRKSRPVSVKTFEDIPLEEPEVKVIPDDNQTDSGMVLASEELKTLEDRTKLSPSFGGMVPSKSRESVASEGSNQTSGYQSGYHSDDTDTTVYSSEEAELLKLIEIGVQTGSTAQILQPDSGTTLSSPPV

For the molecule `O=C(Nc1cccc(F)c1)Nc1cccc(C(=O)c2ccc3ncc(N4CCOCC4)nc3c2)c1` [Compound C016, 1-(3-fluorophenyl)-3-(3-(3-morpholinoquinoxaline-6-carbonyl)phenyl)urea], the pIC50 in the assay on A375 cells was less than 5.30; in the assay with A549 cells it was less than 5.30; at KDR (VEGFR2), less than 7.00; on BRAF V600E (read-out: IC50 against BRAF V600E), greater than 7.00. For the same molecule, the inhibition at 1 µM on KDR (VEGFR2) was 70 to 89%; on BRAF V600E it was greater than 89%.

On to `O=C(Nc1cccc(C(F)(F)F)c1)Nc1ccc(F)c(C(=O)c2ccc3nccnc3c2)c1F` [Compound C010, 1-(2,4-difluoro-3-(quinoxaline-6-carbonyl)phenyl)-3-(3-(trifluoromethyl)phenyl)urea], for which the pIC50 with A375 cells and in the assay on A549 cells was less than 5.30 each time. Besides, the inhibition at 1 µM was less than 70% on KDR (VEGFR2) and 70 to 89% on BRAF V600E.

Turning to `O=C(Nc1ccc(F)cc1)Nc1cc(F)cc(C(=O)c2ccc3nccnc3c2)c1` [Compound C064, 1-(3-fluoro-5-(quinoxaline-6-carbonyl)phenyl)-3-(4-fluorophenyl)urea], the pIC50 with A375 cells and in the assay with A549 cells was less than 5.30 in each case. For the same molecule, the inhibition at 1 µM at KDR (VEGFR2) was less than 70%; on BRAF V600E, greater than 89%.

With `O=C(Nc1ccc(F)cc1)Nc1cc(F)cc(C(=O)c2ccc3ncc(N4CCOCC4)nc3c2)c1` [Compound C043, 1-(3-fluoro-5-(3-morpholinoquinoxaline-6-carbonyl)phenyl)-3-(4-fluorophenyl)urea], the negative logarithm of the IC50 (pIC50) in the assay on A375 cells and in the assay with A549 cells was less than 5.30 in each case. The values for the inhibition at 1 µM at KDR (VEGFR2) and on BRAF V600E were less than 70% and greater than 89%, respectively.

For `O=C(Nc1cccc(C(=O)c2ccc3ncc(N4CCOCC4)nc3c2)c1)c1ccc(Cl)c(C(F)(F)F)c1` [Compound C120, 4-chloro-N-(3-(3-morpholinoquinoxaline-6-carbonyl)phenyl)-3-(trifluoromethyl)benzamide], the pIC50 is 5.30 to 6.00 in the assay with A375 cells and 5.30 to 5.70 in the assay on A549 cells. Moreover, the figures for the inhibition at 1 µM at KDR (VEGFR2) and at BRAF V600E were 70 to 89% and greater than 89%, respectively.

As to `O=C(Nc1cc(F)cc(C(=O)c2ccc3nccnc3c2)c1)Nc1ccc(Cl)c(F)c1` [Compound C061, 1-(4-chloro-3-fluorophenyl)-3-(3-fluoro-5-(quinoxaline-6-carbonyl)phenyl)urea], the pIC50 with A375 cells was less than 5.30; with A549 cells, 5.30 to 5.70. Further, the results for the inhibition at 1 µM on KDR (VEGFR2) and at BRAF V600E were less than 70% and greater than 89%, respectively.

For `O=C(Nc1cccc(Cl)c1)Nc1cc(F)cc(C(=O)c2ccc3ncc(N4CCOCC4)nc3c2)c1` [Compound C047, 1-(3-chlorophenyl)-3-(3-fluoro-5-(3-morpholinoquinoxaline-6-carbonyl)phenyl)urea], the pIC50 in the assay on A375 cells was 5.30 to 6.00; with A549 cells, 5.30 to 5.70. For the same molecule, the inhibition at 1 µM was less than 70% on KDR (VEGFR2) and greater than 89% on BRAF V600E.

Consider `O=C(Nc1ccc(F)c(C(=O)c2ccc3ncc(N4CCNCC4)nc3c2)c1)Nc1ccc(Cl)c(C(F)(F)F)c1` [Compound C086], for which the pIC50 with A375 cells was greater than 6.00; in the assay with A549 cells it was 5.30 to 5.70; at KDR (VEGFR2), greater than 7.00. Further, the inhibition at 1 µM at KDR (VEGFR2) and on BRAF V600E was greater than 89% in each case.

`O=C(Nc1ccc(C(F)(F)F)cc1)Nc1ccc(F)c(C(=O)c2ccc3ncc(N4CCOCC4)nc3c2)c1` [Compound C057, 1-(4-fluoro-3-(3-morpholinoquinoxaline-6-carbonyl)phenyl)-3-(4-(trifluoromethyl)phenyl)urea]: the figures for the pIC50 in the assay on A375 cells and in the assay on A549 cells were greater than 6.00 and greater than 5.70, respectively. Moreover, the inhibition at 1 µM at KDR (VEGFR2) and on BRAF V600E was greater than 89% each time.

Take `O=C(Nc1cc(F)cc(C(=O)c2ccc3nccnc3c2)c1)c1cccc(C(F)(F)F)c1` [Compound C126, N-(3-fluoro-5-(quinoxaline-6-carbonyl)phenyl)-3-(trifluoromethyl)benzamide]: the pIC50 in the assay on A375 cells is 5.30 to 6.00; in the assay on A549 cells, less than 5.30. Further, the values for the inhibition at 1 µM at KDR (VEGFR2) and on BRAF V600E were less than 70% and greater than 89%, respectively.

Regarding `O=C(Nc1cccc(Cl)c1)Nc1ccc(F)c(C(=O)c2ccc3ncc(N4CCOCC4)nc3c2)c1` [Compound C056, 1-(3-chlorophenyl)-3-(4-fluoro-3-(3-morpholinoquinoxaline-6-carbonyl)phenyl)urea], the negative logarithm of the IC50 (pIC50) was greater than 6.00 with A375 cells and 5.30 to 5.70 in the assay with A549 cells. Moreover, the inhibition at 1 µM at KDR (VEGFR2) and on BRAF V600E was greater than 89% each time.

Regarding `O=C(Nc1cc(F)cc(C(=O)c2ccc3nccnc3c2)c1)Nc1ccc(F)c(Cl)c1` [Compound C067, 1-(3-chloro-4-fluorophenyl)-3-(3-fluoro-5-(quinoxaline-6-carbonyl)phenyl)urea], the figures for the pIC50 in the assay on A375 cells and in the assay on A549 cells were 5.30 to 6.00 and 5.30 to 5.70, respectively. For the same molecule, the results for the inhibition at 1 µM at KDR (VEGFR2) and on BRAF V600E were less than 70% and greater than 89%, respectively.

As for `O=C(Nc1cccc(F)c1)Nc1cc(F)c(F)c(C(=O)c2ccc3nccnc3c2)c1` [Compound C024, 1-(3,4-difluoro-5-(quinoxaline-6-carbonyl)phenyl)-3-(3-fluorophenyl)urea], the negative-log IC50 (pIC50) with A375 cells is less than 5.30; in the assay on A549 cells, greater than 5.70. Further, the results for the inhibition at 1 µM on KDR (VEGFR2) and on BRAF V600E were 70 to 89% and greater than 89%, respectively.

For the molecule `O=C(Nc1cc(F)cc(C(=O)c2ccc3ncc(N4CCOCC4)nc3c2)c1)c1cccc(F)c1` [Compound C142, 3-fluoro-N-(3-fluoro-5-(3-morpholinoquinoxaline-6-carbonyl)phenyl)benzamide], the pIC50 in the assay with A375 cells was 5.30 to 6.00; in the assay with A549 cells, 5.30 to 5.70. The inhibition at 1 µM on KDR (VEGFR2) and on BRAF V600E was 70 to 89% each time.

Take `O=C(Nc1ccc(F)c(Cl)c1)Nc1ccc(F)c(C(=O)c2ccc3ncc(N4CCOCC4)nc3c2)c1` [Compound C055, 1-(3-chloro-4-fluorophenyl)-3-(4-fluoro-3-(3-morpholinoquinoxaline-6-carbonyl)phenyl)urea]: the pIC50 is greater than 6.00 in the assay on A375 cells and greater than 5.70 with A549 cells. Further, the inhibition at 1 µM at KDR (VEGFR2) and at BRAF V600E was greater than 89% in each case.

`O=C(Nc1cccc(C(=O)c2ccc3ncc(N4CCCC4)nc3c2)c1)c1ccc(Cl)c(C(F)(F)F)c1` [Compound C123, 4-chloro-N-(3-(3-(pyrrolidin-1-yl)quinoxaline-6-carbonyl)phenyl)-3-(trifluoromethyl)benzamide]: the pIC50 in the assay on A375 cells and in the assay on A549 cells was less than 5.30 each time. Besides, the inhibition at 1 µM at KDR (VEGFR2) and at BRAF V600E was 70 to 89% throughout.

With `O=C(Nc1cc(F)c(F)c(C(=O)c2ccc3nccnc3c2)c1)c1cccc(C(F)(F)F)c1` [Compound C128, N-(3,4-difluoro-5-(quinoxaline-6-carbonyl)phenyl)-3-(trifluoromethyl)benzamide], the pIC50 is 5.30 to 6.00 in the assay on A375 cells and less than 5.30 in the assay on A549 cells. Besides, the inhibition at 1 µM at KDR (VEGFR2) was 70 to 89%; at BRAF V600E, greater than 89%.

With `O=C(Nc1cccc(C(F)(F)F)c1)Nc1cc(F)c(F)c(C(=O)c2ccc3nccnc3c2)c1` [Compound C042, 1-(3,4-difluoro-5-(quinoxaline-6-carbonyl)phenyl)-3-(3-(trifluoromethyl)phenyl)urea], the values for the negative logarithm of the IC50 (pIC50) in the assay on A375 cells and in the assay on A549 cells were 5.30 to 6.00 and 5.30 to 5.70, respectively. Also, the inhibition at 1 µM on KDR (VEGFR2) is less than 70%; on BRAF V600E it was greater than 89%.

For `O=C(Nc1cc(F)c(F)c(C(=O)c2ccc3nccnc3c2)c1)c1cccc(F)c1` [Compound C131, N-(3,4-difluoro-5-(quinoxaline-6-carbonyl)phenyl)-3-fluorobenzamide], the pIC50 in the assay with A375 cells and with A549 cells was less than 5.30 each time. Also, the inhibition at 1 µM at KDR (VEGFR2) was less than 70%; at BRAF V600E, greater than 89%.

For `O=C(Nc1cc(F)cc(C(=O)c2ccc3ncc(N4CCOCC4)nc3c2)c1)c1ccc(Cl)c(C(F)(F)F)c1` [Compound C135, 4-chloro-N-(3-fluoro-5-(3-morpholinoquinoxaline-6-carbonyl)phenyl)-3-(trifluoromethyl)benzamide], the pIC50 with A375 cells is 5.30 to 6.00; with A549 cells, less than 5.30. The inhibition at 1 µM was less than 70% at KDR (VEGFR2) and 70 to 89% on BRAF V600E.
